Assay: Physicochemical properties of the crystalline complex

Compound: N#Cc1ccc([C@@H]2O[C@H](CO)[C@@H](O)[C@H](O)[C@H]2O)cc1Cc1ccc(C2CC2)cc1.O=C(O)[C@@H]1CCCN1 [crystalline complex]
- tendency to absorb moisture: does not show a high tendency to absorb moisture
- physical and chemical stability (various environmental conditions and during production of a medicament): high physical and chemical stability

— patent US11896574B2, “Treatment of metabolic disorders in feline animals” (Boehringer Ingelheim Vetmedica GmbH, priority 2013, dated 2024)
